According to the supplement of paper PMC10307832:

How the values were obtained:
Assay in all cases: relative viability (nuclei count vs DMSO), 5 days (fraction); higher = more cells survive
[1] = compound: COc1cc2nc(N3CCCN(C)CC3)nc(NC3CCN(Cc4ccccc4)CC3)c2cc1OC + C[C@]1(O)C[C@@H](c2nc(-c3ccc4ccc(-c5ccccc5)nc4c3)c3c(N)nccn32)C1 [Linsitinib] (partner 1 µM)
How it was run: (§1)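 Nuclei were stained with Hoechst during a one-step fixation (final 0.05% Triton X-100, 1% formaldehyde, 1 ug/ml Hoechst) carried out 5 days after dosing, then counted on 4× images. The cells, lung cancer lines in 1536-well plates, had been dosed by pin tool the day after seeding with one drug alone or a fixed anchor-drug dose plus five library-drug doses (not always all listed) in √10 steps. Relative viability is the nuclei count in treated wells divided by that in vehicle wells, and each value is the median of duplicate plates.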

AZD6482 + Crizotinib = compound: Cc1cc([C@@H](C)Nc2ccccc2C(=O)O)c2nc(N3CCOCC3)cc(=O)n2c1 [AZD6482] + C[C@@H](Oc1cc(-c2cnn(C3CCNCC3)c2)cnc1N)c1c(Cl)ccc(F)c1Cl [Crizotinib] (partner 1 µM)
How it was run: as §1

AZD6482 + Pemetrexed = compound: Cc1cc([C@@H](C)Nc2ccccc2C(=O)O)c2nc(N3CCOCC3)cc(=O)n2c1 [AZD6482] + Nc1nc2[nH]cc(CCc3ccc(C(=O)N[C@@H](CCC(=O)O)C(=O)O)cc3)c2c(=O)[nH]1 [Pemetrexed] (partner 0.2 µM)
How it was run: as §1

AZD6482 + Olaparib = compound: Cc1cc([C@@H](C)Nc2ccccc2C(=O)O)c2nc(N3CCOCC3)cc(=O)n2c1 [AZD6482] + O=C(c1cc(Cc2n[nH]c(=O)c3ccccc23)ccc1F)N1CCN(C(=O)C2CC2)CC1 [Olaparib] (partner 8 µM)
How it was run: as §1

| Cell Line | relative viability ([1]; first compound 0.2 µM) | relative viability ([1]; first compound 0.6325 µM) | relative viability ([1]; first compound 2 µM) | relative viability ([1]; first compound 6.325 µM) | relative viability (AZD6482 + Crizotinib; first compound 0.08 µM) | relative viability (AZD6482 + Crizotinib; first compound 0.253 µM) | relative viability (AZD6482 + Crizotinib; first compound 0.8 µM) | relative viability (AZD6482 + Crizotinib; first compound 2.53 µM) | relative viability (AZD6482 + Crizotinib; first compound 8 µM) | relative viability (AZD6482 + Pemetrexed; first compound 0.08 µM) | relative viability (AZD6482 + Pemetrexed; first compound 0.253 µM) | relative viability (AZD6482 + Pemetrexed; first compound 0.8 µM) | relative viability (AZD6482 + Pemetrexed; first compound 2.53 µM) | relative viability (AZD6482 + Pemetrexed; first compound 8 µM) | relative viability (AZD6482 + Olaparib; first compound 0.08 µM) | relative viability (AZD6482 + Olaparib; first compound 0.253 µM) | relative viability (AZD6482 + Olaparib; first compound 0.8 µM) | relative viability (AZD6482 + Olaparib; first compound 2.53 µM) | relative viability (AZD6482 + Olaparib; first compound 8 µM) |
| --- | --- | --- | --- | --- | --- | --- | --- | --- | --- | --- | --- | --- | --- | --- | --- | --- | --- | --- | --- |
| NCI-H2228 | 0.59 | 0.587 | 0.83 | 0.476 | 0.368 | 0.46 | 0.308 | 0.254 | 0.275 | 0.325 | 0.3 | 0.325 | 0.303 | 0.309 | 0.494 | 0.546 | 0.569 | 0.466 | 0.569 |
| HOP-62 | 0.878 | 0.992 | 1.03 | 0.7 | 1.07 | 0.897 | 0.609 | 0.782 | 0.751 | 0.335 | 0.386 | 0.363 | 0.335 | 0.379 | 0.444 | 0.539 | 0.453 | 0.459 | 0.552 |
| HARA | 0.798 | 0.889 | 1 | 0.948 | 0.857 | 1.04 | 0.839 |  | 0.899 | 0.217 | 0.241 | 0.278 | 0.254 | 0.253 | 0.685 | 1.01 | 0.943 | 0.683 | 0.519 |
| NCI-H838 | 1.07 | 0.936 | 1.11 | 0.85 | 0.593 | 0.824 | 0.689 | 0.48 | 0.583 | 0.287 | 0.264 | 0.25 | 0.226 | 0.232 | 0.631 | 0.712 | 0.651 | 0.433 | 0.395 |
| IA-LM | 0.724 | 0.5 | 0.661 | 0.458 | 0.968 | 1.06 | 1.01 |  | 1.08 |  |  |  |  |  | 0.982 | 0.995 | 1.15 |  | 0.759 |
| NCI-H1793 | 0.912 | 1.02 | 1.21 | 0.959 |  |  |  |  |  | 0.509 | 0.545 | 0.818 | 0.416 | 0.383 | 0.559 | 0.413 | 0.502 | 0.306 | 0.406 |
| ChaGo-K-1 |  |  |  |  | 1.11 |  | 0.744 | 1.23 | 1.12 | 0.259 | 0.262 | 0.271 | 0.262 | 0.258 | 0.399 | 0.436 | 0.42 | 0.431 | 0.4 |
| NCI-H2342 |  |  |  |  |  |  |  |  |  | 0.745 | 0.681 | 0.726 | 0.609 | 0.567 | 0.346 | 0.368 | 0.4 | 0.42 | 0.329 |
| NCI-H1299 | 1.01 | 0.939 | 1.1 | 0.97 | 0.956 | 0.946 | 1.04 | 0.942 | 0.989 |  |  |  |  |  | 0.995 | 1.02 | 1.07 | 0.992 | 0.934 |
| NCI-H1650 |  |  |  |  | 0.907 |  | 0.958 | 0.662 | 0.653 | 0.332 | 0.295 | 0.372 | 0.287 | 0.361 | 0.652 | 0.761 | 0.643 | 0.736 | 0.813 |
| SW 900 |  |  |  |  |  |  |  |  |  | 0.479 | 0.476 | 0.501 | 0.358 | 0.384 | 0.678 | 0.665 | 0.661 | 0.623 | 0.616 |
| NCI-H727 | 0.316 | 0.277 | 0.369 | 0.221 | 0.684 | 0.971 | 0.864 |  | 0.824 |  |  |  |  |  | 0.681 | 0.666 | 0.66 |  | 0.669 |
| NCI-H1648 |  |  |  |  |  |  |  |  |  | 0.892 | 0.625 | 0.816 |  | 0.671 | 0.575 | 0.823 | 0.715 |  | 0.638 |
| NCI-H522 |  |  |  |  |  |  |  |  |  | 0.932 | 0.933 | 1.11 | 0.87 | 0.923 | 0.573 | 0.697 | 0.634 | 0.596 | 0.577 |
| NCI-H1395 | 1.16 | 1.13 | 0.912 | 1.12 |  |  |  |  |  | 0.742 | 0.552 | 0.591 | 0.45 | 0.521 | 0.406 | 0.429 | 0.501 | 0.388 | 0.32 |
| A549 | 0.648 | 0.549 | 0.713 | 0.684 | 0.73 | 0.722 | 0.754 | 0.405 | 0.431 |  |  |  |  |  | 0.26 | 0.33 | 0.37 |  | 0.315 |
| NCI-H2170 |  |  |  |  | 1.11 | 1.15 | 1.23 | 1.05 | 0.851 | 0.257 | 0.242 | 0.265 | 0.252 | 0.251 | 0.536 | 0.608 | 0.511 | 0.542 | 0.489 |
| NCI-H1563 | 1.29 | 1.19 | 1.19 | 1.16 | 0.783 | 0.821 | 0.82 | 0.663 | 0.769 | 0.666 | 0.676 | 0.642 | 0.605 | 0.698 |  |  |  |  |  |
| ABC-1 | 0.815 | 0.66 | 0.871 | 0.936 | 0.853 | 0.969 | 1.03 | 0.899 | 0.801 |  |  |  |  |  | 0.602 | 0.464 | 0.881 | 0.801 | 0.52 |
